{
  "source": "patent US8865738B2",
  "about": "“5-membered heterocyclic compound cyclopenta[C]pyrrolylalkylcarbamate derivatives, preparation thereof, and therapeutic use thereof” (Sanofi, priority 2009, dated 2014)",
  "key": {"[1]": {"target": "T1, FAAH (Fatty Acid Amide Hydrolase) (Mus musculus, UniProt O08914)", "T1 construct": "The membrane homogenates are prepared extemporaneously by homogenizing the tissues; from tissue; host or cells: mouse brain (minus the cerebellum), membrane homogenate", "T1 sequence (O08914 1-579)": "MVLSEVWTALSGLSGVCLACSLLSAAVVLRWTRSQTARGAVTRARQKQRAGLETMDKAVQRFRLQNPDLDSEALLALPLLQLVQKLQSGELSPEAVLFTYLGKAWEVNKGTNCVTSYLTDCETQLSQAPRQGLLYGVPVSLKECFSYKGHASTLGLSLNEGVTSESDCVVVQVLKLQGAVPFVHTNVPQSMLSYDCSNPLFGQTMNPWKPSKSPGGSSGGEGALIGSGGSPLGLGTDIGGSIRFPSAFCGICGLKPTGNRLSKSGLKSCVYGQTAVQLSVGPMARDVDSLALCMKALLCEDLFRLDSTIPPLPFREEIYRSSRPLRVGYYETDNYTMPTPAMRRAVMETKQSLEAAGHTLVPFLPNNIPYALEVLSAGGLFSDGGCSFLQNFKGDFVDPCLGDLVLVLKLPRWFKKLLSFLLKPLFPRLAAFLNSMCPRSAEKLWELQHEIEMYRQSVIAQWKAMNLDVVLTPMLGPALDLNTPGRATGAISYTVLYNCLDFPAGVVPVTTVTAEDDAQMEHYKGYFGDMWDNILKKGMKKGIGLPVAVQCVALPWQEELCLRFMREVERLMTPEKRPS", "assay": "radioenzymatic test, hydrolysis of anandamide [ethanolamine 1-3H] with FAAH (protocol 1)", "assay_type": "biochemical", "settings": "mouse brain membrane homogenate, anandamide 10 μM, 20 min preincubation at 25° C., read-out: IC50 (concentration that inhibits 50% of the control enzymatic activity of FAAH)", "method": "(§1) The compounds of the invention underwent pharmacological tests to determine their inhibitory effect on the enzyme FAAH (Fatty Acid Amide Hydrolase).\nThus, mouse brains (minus the cerebellum) are removed and stored at −80° C. The membrane homogenates are prepared extemporaneously by homogenizing the tissues using a Precellys® machine in reaction buffer (10 mM Tris-HCl, pH=8, 150 mM NaCl and 1 mM ethylenediaminetetraacetic acid (EDTA)). The enzymatic reaction is performed in 96-well Multiscreen filtration plates in a final volume of 70 μl. Reaction buffer supplemented with fatty acid-free bovine serum albumin (BSA, 1 mg/ml) is used for the enzymatic reaction and the dilution of the compounds and of the anandamide [ethanolamine 1-^3H]. The reaction buffer containing BSA (43 μl/well), the diluted test compounds at various concentrations (7 μl/well containing 1% DMSO) and the membrane preparation (10 μl/well, i.e. 200 μg of tissue per test) are successively added to the wells. After preincubation for 20 minutes of the compounds with the enzyme at 25° C., the reaction is started by adding anandamide [ethanolamine 1-^3H](specific activity of 15-20 Ci/mmol) diluted with cold anandamide (10 μl/well, final concentration of 10 μM, 0.01 μCi per test). After incubation for 20 minutes at 25° C., the enzymatic reaction is stopped by adding a 5M solution of activated carbon prepared in 1.5M NaCl buffer and 0.5M HCl (50 μl/well). The mixture is stirred for 10 minutes then the aqueous phase containing the ethanolamine [1-^3H] is recovered by filtration under vacuum and counted by liquid scintillation."}, "[2]": {"target": "T1, FAAH (Fatty Acid Amide Hydrolase)", "assay": "fluorescent enzymatic test, hydrolysis of AAMC with FAAH (protocol 2)", "assay_type": "biochemical", "settings": "mouse brain homogenate, AAMC 10 μM, 40 min at 37° C., read-out: IC50 (concentration that inhibits 50% of the control enzymatic activity of FAAH)", "method": "as §1\nThus, mouse brains (minus the cerebellum) are withdrawn and stored at −80° C. The brain homogenates are prepared extemporaneously by homogenizing the tissues using a Precellys® machine in reaction buffer (10 mM Tris-HCl, pH=8, 150 mM NaCl and 1 mM ethylenediamine-tetraacetic acid (EDTA)). The enzymatic reaction is performed in black polystyrene 384-well plates in a final volume of 50 μL. Reaction buffer supplemented with fatty acid-free bovine serum albumin (BSA, 1 mg/ml) is used for the enzymatic reaction, the dilution of the compounds and the dilution of the AAMC. Reaction buffer containing the BSA (25 μl/well), the diluted test compounds at various concentrations (5 μl/well containing 1% DMSO) and the membrane preparation (10 μL/well, i.e. 200 μg of tissue per test) are successively added to the wells. After preincubation for 20 minutes of the compounds with the enzyme at 25° C., the reaction is started by adding 10 μL of substrate per well (AAMC, final concentration of 10 μM). After incubation for 40 minutes at 37° C., the aminomethyl coumarin (AMC) produced is measured by fluorescent counting (Envision plate reader)."}},
  "note": "pIC50: −log10 of the molar value.",
  "data": [
    {"smiles": "O=C(NC[C@H]1C[C@@H]2CN(c3cccc(C(F)(F)F)n3)C[C@@H]2C1)OCc1cscn1", "note": "[Compound No. 1, thiazol-4-ylmethyl ({(3aR,5s,6aS)-2-[6-(trifluoro-methyl)pyrid-2-yl]octahydrocyclopenta[c]pyrrol-5-yl}methyl)carbamate (exo)]", "values": [
      {"measurement": "pIC50", "setting": "[1]", "value": 6.70}
    ]},
    {"smiles": "O=C(NC[C@H]1C[C@@H]2CN(c3ccc(-c4ccc(F)cc4)cn3)C[C@@H]2C1)OCc1cscn1", "note": "[Compound No. 3, thiazol-4-ylmethyl ({(3aR,5s,6aS)-2-[5-(4-fluoro-phenyl)pyrid-2-yl]octahydrocyclopenta[c]pyrrol-5-yl}-methyl)carbamate (exo)]", "values": [
      {"measurement": "pIC50", "setting": "[1]", "value": 9.01},
      {"measurement": "melting point", "value": "129 to 131", "unit": "°C"}
    ]},
    {"smiles": "Cn1ncnc1COC(=O)NC[C@H]1C[C@@H]2CN(c3cccc(-c4cncc(F)c4)n3)C[C@@H]2C1", "note": "[Compound No. 8, (1-methyl-1H-1,2,4-triazol-5-yl)methyl {[(3aR,5s,6aS)-2-(5′-fluoro-2,3′-bipyrid-6-yl)octahydrocyclopenta[c]-pyrrol-5-yl]methyl}carbamate (exo)]", "values": [
      {"measurement": "pIC50", "setting": "[1]", "value": 8.96},
      {"measurement": "melting point", "value": "136 to 138", "unit": "°C"}
    ]},
    {"smiles": "CNC(=O)c1cc(COC(=O)NCC[C@@H]2C[C@@H]3CN(c4ccc(Br)cn4)C[C@@H]3C2)on1", "note": "[Compound No. 10, [3-(methylcarbamoyl)isoxazol-5-yl]methyl {2-[(3aR,5r,6aS)-2-(5-bromopyrid-2-yl)octahydrocyclopenta[c]-pyrrol-5-yl]ethyl}carbamate (endo)]", "values": [
      {"measurement": "pIC50", "setting": "[1]", "value": 8.62},
      {"measurement": "melting point", "value": "157 to 159", "unit": "°C"}
    ]},
    {"smiles": "CNC(=O)c1cc(COC(=O)NC2C3CN(c4ccc5cc(F)ccc5n4)CC32)on1", "note": "(centres unmarked) [Compound No. 14, [3-(methylcarbamoyl)isoxazol-5-yl]methyl [3-(6-fluoro-quinolin-2-yl)-3-azabicyclo[3.1.0]hex-6-yl]carbamate]", "values": [
      {"measurement": "melting point", "value": "220 to 222", "unit": "°C"},
      {"measurement": "pIC50", "setting": "[2]", "value": 7.92}
    ]},
    {"smiles": "Cn1cc(-c2ccc(N3CC4CC(CNC(=O)OCc5cscn5)CC4C3)nc2)cn1", "note": "[compound 4, thiazol-4-ylmethyl ({(3aR,5s,6aS)-2-[5-(1-methyl-1H-pyrazol-4-yl)pyrid-2-yl]octahydrocyclopenta[c]pyrrol-5-yl}methyl)carbamate (exo)]", "values": [
      {"measurement": "pIC50", "setting": "[1]", "value": 8.07}
    ]},
    {"smiles": "Cn1ncnc1COC(=O)NC[C@H]1C[C@@H]2CN(c3ccc(-c4ccc(F)cc4)cn3)C[C@@H]2C1", "note": "[compound 7, (1-methyl-1H-1,2,4-triazol-5-yl)methyl ({(3aR,5s,6aS)-2-[5-(4-fluorophenyl)pyrid-2-yl]octahydrocyclopenta[c]-pyrrol-5-yl}methyl)carbamate (exo)]", "values": [
      {"measurement": "pIC50", "setting": "[1]", "value": 6.77}
    ]}
  ]
}
